{"source": "patent US20250345299A1", "about": "“COMBINATION AND COMPOSITION COMPRISING NICOTINIC ACID OR DERIVATIVE THEREOF AND FATTY ACID OR DERIVATIVE THEREOF” (T OMEGA AS, priority 2022, published 2025)", "format_in_all_cases": "in vivo, male Wistar rats, Rattus norvegicus", "key": {"[1]": {"test": "Analysis of plasma compounds in rats fed high-fat diet supplemented with TTA, NR, NAR or combinations", "parameters": "Quinolinic acid / Nicotinamide / N1-Methylnicotinamide / Pyridoxal 5′-phosphate / Pyridoxal / Thiamine monophosphate: unit not given here", "conditions": "high-fat diet + supplement, 12 weeks", "experimental": "This example illustrates an animal study using male Wistar rats which were fed NR, NAR, TTA and combinations thereof.\n(§1) The animal study was conducted according to the Guidelines for the Care and Use of Experimental Animals, and in accordance with the Norwegian legislation and regulations governing experiments using live animals. All efforts were made to optimize the animal environment and minimize suffering. Eight weeks-old old male Wistar rats, Rattus norvegicus, weighing 400-450 g, were purchased from Taconic (Ejby, Denmark). Upon arrival the rats were randomized using Research Randomizer, labeled and placed in open cages, two in each cage, where they were allowed to acclimatize to their surroundings for one week. During the acclimatization and experiment period, the rats had unrestricted access to tap water, but restricted access to chow to obtain a constant dose through the experiment.\n(§2) The rats were kept in a 12 hours light/dark cycle at a constant temperature (22±2° C.) and a relative humidity of 55% (±5%). Upon start of the experiment, the rats were block randomized to their respective interventions. All rats were divided into seven groups. The first group of animals (control group) was fed a high-fat diet (HF) with 25% by weight fat, consisting of 23% by weight lard and 2% by weight soybean oil, referred to as “HF”. The second group was fed a high-fat diet (HF) supplemented with tetradecylthioacetic acid (TTA) (250 mg/day/kg body weight), referred to as “HF+TTA”. The third group was fed a high-fat diet (HF) supplemented with nicotineamide riboside (NR) (100 mg/day/kg body weight), referred to as “HF+NR”. The fourth group was fed a high-fat diet (HF) supplemented with nicotinic acid riboside (NAR) (40 mg/day/kg body weight), referred to as “HF+NAR”. The fifth group was fed a high-fat diet (HF) supplemented with both tetradecylthioacetic acid (TTA) (250 mg/day/kg body weight) and nicotineamide riboside (NR) (100 mg/day/kg body weight), referred to as “HF+TTA+NR”. The sixth group was fed a high-fed diet (HF) supplemented with both tetradecylthioacetic acid (TTA) (250 mg/day/kg body weight) and nicotinic acid riboside (NAR) (40 mg/day/kg body weight), referred to as “HF+TTA+NAR”. The seventh group was fed a low-fed diet, referred to as “LF”.\n(§3) All animals were weighed daily and feed intake was determined weekly. The animal experiment was run for 12 weeks. At sacrifice, rats were anaesthetized by inhalation of 2-5% isoflurane (Schering-Plough, Kent, UK), the abdomen opened along the midline, and exsanguination was performed using cardiac puncture. EDTA-blood was collected and immediately chilled on ice. The samples were centrifuged and plasma was stored at −80° C. prior to analysis. Different tissues were collected, weighed and were immediately snap-frozen in liquid nitrogen and stored at −80° C. until further analysis."}, "[2]": {"test": "Body and adipose tissue weights in rats fed supplemented high-fat diet", "experimental": "as §1, with “Eight weeks-old old male Wistar rats, Rattus norvegicus, weighing 400-450 g, were purchased from Taconic (Ejby, Denmark).” left out\nas §2, §3"}, "[3]": {"test": "Plasma lipids and total fatty acids in rats fed supplemented high-fat diet", "conditions": "high-fat diet + supplement, 12 weeks", "experimental": "as §1, with “Eight weeks-old old male Wistar rats, Rattus norvegicus, weighing 400-450 g, were purchased from Taconic (Ejby, Denmark).” left out\nas §2, §3"}, "[4]": {"test": "Liver lipids in rats fed supplemented high-fat diet", "conditions": "high-fat diet + supplement, 12 weeks", "experimental": "as §1, with “Eight weeks-old old male Wistar rats, Rattus norvegicus, weighing 400-450 g, were purchased from Taconic (Ejby, Denmark).” left out\nThe rats were kept in a 12 hours light/dark cycle at a constant temperature (22±2° C.) and a relative humidity of 55% (±5%). Upon start of the experiment, the rats were block randomized to their respective interventions. All rats were divided into seven groups. The first group of animals (control group) was fed a high-fat diet (HF) with 25% by weight fat, consisting of 23% by weight lard and 2% by weight soybean oil, referred to as “HF”. The second group was fed a high-fat diet (HF) supplemented with tetradecylthioacetic acid (TTA) (250 mg/day/kg body weight), referred to as “HF+TTA”. […]\nAll animals were weighed daily and feed intake was determined weekly. […]"}, "[5]": {"conditions": "high-fat diet + supplement, 12 weeks"}}}
{"compound": "O=C([O-])c1ccc[n+]([C@@H]2O[C@H](CO)[C@@H](O)[C@H]2O)c1", "note": "[HF + NAR, nicotinic acid riboside]", "values": [{"measurement": "2-Aminoadipic acid", "setting": "[1]", "value": 1.34, "unit": "µM"}, {"measurement": "3-Hydroxyanthranilic acid", "setting": "[1]", "value": 7.8, "unit": "µM"}, {"measurement": "Folic acid", "setting": "[1]", "value": 0.70, "unit": "µM"}, {"measurement": "Methylmalonic acid", "setting": "[1]", "value": 2.35, "unit": "µM"}, {"measurement": "N1-Methylnicotinamide", "setting": "[1]", "value": 2414}, {"measurement": "Nicotinamide", "setting": "[1]", "value": 4308}, {"measurement": "Nicotinic acid", "setting": "[1]", "value": 11.95, "unit": "µM"}, {"measurement": "Pyridoxal", "setting": "[1]", "value": 384.1}, {"measurement": "Pyridoxal 5′-phosphate", "setting": "[1]", "value": 598.3}, {"measurement": "Serine", "setting": "[1]", "value": 325, "unit": "µM"}, {"measurement": "Thiamine monophosphate", "setting": "[1]", "value": 350.0}, {"measurement": "Trigonelline", "setting": "[1]", "value": 0.084, "unit": "µM"}]}
{"compound": "nicotineamide riboside [HF + NR]", "values": [{"measurement": "Brown adipose tissue weight", "setting": "[2]; [5]", "value": 0.308, "unit": "g"}, {"measurement": "White adipose tissue weight", "setting": "[2]; [5]", "value": 34.52, "unit": "g"}, {"measurement": "Body weight end", "setting": "[2]; high-fat diet + supplement, end of 12 weeks", "value": 555.60, "unit": "g"}, {"measurement": "Body weight start", "setting": "[2]; start of experiment (baseline)", "value": 409.60, "unit": "g"}, {"measurement": "HDL/LDL ratio", "setting": "[3]", "value": 2.117}, {"measurement": "Plasma lipids: Cholesterol", "setting": "[3]", "value": 2.000, "unit": "mmol/L"}, {"measurement": "Plasma lipids: High density lipoprotein", "setting": "[3]", "value": 0.938, "unit": "mmol/L"}, {"measurement": "Plasma lipids: Low density lipoprotein", "setting": "[3]", "value": 0.450, "unit": "mmol/L"}, {"measurement": "Plasma lipids: Triglycerides", "setting": "[3]", "value": 2.194, "unit": "mmol/L"}, {"measurement": "Total fatty acids, plasma", "setting": "[3]", "value": 3049, "unit": "µg/mL"}, {"measurement": "2-Aminoadipic acid", "setting": "[1]", "value": 1.33, "unit": "µM"}, {"measurement": "3-Hydroxyanthranilic acid", "setting": "[1]", "value": 5.4, "unit": "µM"}, {"measurement": "3-Hydroxybutyrate", "setting": "[1]", "value": 287, "unit": "µM"}, {"measurement": "Acetoacetate", "setting": "[1]", "value": 72.9, "unit": "µM"}, {"measurement": "Glycine", "setting": "[1]", "value": 221, "unit": "µM"}, {"measurement": "Methylmalonic acid", "setting": "[1]", "value": 3.37, "unit": "µM"}, {"measurement": "N1-Methylnicotinamide", "setting": "[1]", "value": 3616}, {"measurement": "Nicotinamide", "setting": "[1]", "value": 5870}, {"measurement": "Nicotinic acid", "setting": "[1]", "value": 12.38, "unit": "µM"}, {"measurement": "Pyridoxal", "setting": "[1]", "value": 369.8}, {"measurement": "Pyridoxal 5′-phosphate", "setting": "[1]", "value": 729.0}, {"measurement": "Quinolinic acid", "setting": "[1]", "value": 533}, {"measurement": "Liver lipids: Cholesterol", "setting": "[4]", "value": 39.84, "unit": "µmol/g"}, {"measurement": "Liver lipids: Triglycerides", "setting": "[4]", "value": 75.22, "unit": "µmol/g"}]}
